Patent US9458337B2, “Curable resin composition, water-soluble ink composition, ink set, and image-forming method” (FUJIFILM CORPORATION, priority 2012, dated 2016)

Experiment: Degree of solubility of polymerization initiators (3 mass % aqueous solution)
Format: physicochemical
Parameters: key: A: The polymerization initiator was fully dissolved at room temperature.; B: The polymerization initiator was slightly precipitated at room temperature, and was fully dissolved when being heated at 60° C.; The polymerization initiator was not fully dissolved even when being heated at 60° C
Details: 3 mass % aqueous solution of the polymerization initiator; room temperature / heated at 60° C.
Method: 3 mass % aqueous solutions were respectively prepared using Polymerization Initiators I-1 to I-5, I-8, and R-1 to R-4, and the degrees of solubility of the polymerization initiators were evaluated according to the following evaluation standards.
A: The polymerization initiator was fully dissolved at room temperature.
B: The polymerization initiator was slightly precipitated at room temperature, and was fully dissolved when being heated at 60° C.
C: The polymerization initiator was not fully dissolved even when being heated at 60° C.

SMILES | Degree of solubility
COC(OC)(C(=O)c1ccc(OCC(=O)[O-])cc1)c1ccc(OCC(=O)[O-])cc1.[Na+].[Na+] [Compound R-3] | C
CCC(Cc1ccc(S(=O)(=O)O)cc1)(C(=O)c1ccc(N2CCOCC2)cc1)N(C)C (centres unmarked) [Compound R-4] | A
C[N+](C)(CCCS(=O)(=O)[O-])CCOc1ccc2c(=O)c3ccccc3sc2c1 [Compound I-1] | A

Further lines, results first:

Degree of solubility | SMILES
C | CC(C)(O)C(=O)c1ccc(OCCO)cc1 [Compound R-1]
A | Cc1c(OCC(O)C[N+](C)(C)C)cc2c(=O)c3ccccc3sc2c1C (centres unmarked) [Compound R-2]
